Results as given in patent US7396837B2, “Antitumoral analogs of lamellarins” (Pharma Mar, S.A.U., priority 2002, dated 2008).
Where two headings read alike, the source gives them in different places.

Experiments:
Format in all cases: cell-based
SK-MEL-28 = test: SRB colorimetric cell growth inhibition assay, SK-MEL-28; details: for GI50: GI=growth inhibition, read-out: GI50 MEL-28; for CC50: cell killing (cytotoxic effect), read-out: LC50 MEL-28; for IC (TGI): read-out: TGI MEL-28
Excerpt: (§1) The finality of these assays is to interrupt the growth of an “in vitro” tumor cell culture by means a continued exhibition of the cells to the sample to be testing.
(§2) A colorimetric type of assay, using sulforhodamine B (SRB) reaction has been adapted for a quantitative measurement of cell growth and viability (following the technique described by P. A. Skehan, et al., J. Natl. Cancer Inst. 1990, 82, 1107-1112).
(§3) This form of assay employs 96 well cell culture microplates of 9 mm diameter (T. Mosmann et al., J. of Immunological Methods 1983, 65, 55-63; G. T. Faircloth et al., J. of Tissue and Culture Methods 1988, 11, 201-205).
(§4) Most of the cell lines are obtained from American Type Culture Collection (ATCC) derived from different human cancer types.
(§5) The values for mean +/− SD of data from triplicate wells are calculated. Some parameters for cellular responses can be calculated: GI=growth inhibition, TGI=total growth inhibition (cytostatic effect) and LC=cell killing (cytotoxic effect).

HeLa = test: SRB colorimetric cell growth inhibition assay, HeLa; details: Homo sapiens, HeLa; for GI50: GI=growth inhibition, read-out: GI50 HELA; for CC50: read-out: LC50 HELA; for IC (TGI): read-out: TGI HELA
Excerpt: as §1, §2, §3, §4, §5

LoVo-Dox = test: SRB colorimetric cell growth inhibition assay, LoVo-Dox (MDR); details: LOVO-DOX; for GI50: GI=growth inhibition, read-out: GI50 LOVO-DOX; for CC50: cell killing (cytotoxic effect), read-out: LC50 LOVO-DOX; for IC (TGI): read-out: TGI LOVO-DOX
Excerpt: as §1, §2, §3, §4, §5

A-549 = test: SRB colorimetric cell growth inhibition assay, A-549; details: for GI50: GI=growth inhibition, read-out: GI50 A-549; for CC50: cell killing (cytotoxic effect), read-out: LC50 A-549; for IC (TGI): total growth inhibition (cytostatic effect), read-out: TGI A-549
Excerpt: as §1, §2, §3, §4, §5

DU-145 = test: SRB colorimetric cell growth inhibition assay, DU-145; details: for GI50: GI=growth inhibition, read-out: GI50 DU-145; for CC50: cell killing (cytotoxic effect), read-out: LC50 DU-145; for IC (TGI): read-out: TGI DU-145
Excerpt: as §1, §2, §3, §4, §5

HeLa-APL = test: SRB colorimetric cell growth inhibition assay, HeLa-APL (aplidine resistant); details: Homo sapiens; for GI50: read-out: GI50 HELA-APL; for CC50: read-out: LC50 HELA-APL; for IC (TGI): read-out: TGI HELA-APL
Excerpt: as §1, §2, §3, §4, §5

HT-29 = test: SRB colorimetric cell growth inhibition assay, HT-29; details: for GI50: GI=growth inhibition, read-out: GI50 HT-29; for CC50: cell killing (cytotoxic effect), read-out: LC50 HT-29; for IC (TGI): read-out: TGI HT-29
Excerpt: as §1, §2, §3, §4, §5

LoVo = test: SRB colorimetric cell growth inhibition assay, LoVo; details: for GI50: GI=growth inhibition, read-out: GI50 LOVO; for CC50: cell killing (cytotoxic effect), read-out: LC50 LOVO; for IC (TGI): read-out: TGI LOVO
Excerpt: as §1, §2, §3, §4, §5

IGROV = test: SRB colorimetric cell growth inhibition assay, IGROV; details: IGROV; for GI50: GI=growth inhibition, read-out: GI50 IGROV; for CC50: cell killing (cytotoxic effect), read-out: LC50 IGROV; for IC (TGI): read-out: TGI IGROV
Excerpt: as §1, §2, §3, §4, §5

PANC-1 = test: SRB colorimetric cell growth inhibition assay, PANC-1; details: for GI50: GI=growth inhibition, read-out: GI50 PANC-1; for CC50: cell killing (cytotoxic effect), read-out: LC50 PANC-1; for IC (TGI): read-out: TGI PANC-1
Excerpt: as §1, §2, §3, §4, §5

SK-BR-3 = test: SRB colorimetric cell growth inhibition assay, SK-BR-3; details: for GI50: GI=growth inhibition, read-out: GI50 SK-BR-3; for CC50: cell killing (cytotoxic effect), read-out: LC50 SK-BR-3; for IC (TGI): read-out: TGI SK-BR-3
Excerpt: as §1, §2, §3, §4, §5

IGROV-ET = test: SRB colorimetric cell growth inhibition assay, IGROV-ET (ET-743 resistant); details: IGROV-ET; for GI50: GI=growth inhibition, read-out: GI50 IGROV-ET; for CC50: cell killing (cytotoxic effect), read-out: LC50 IGROV-ET; for IC (TGI): read-out: TGI IGROV-ET
Excerpt: as §1, §2, §3, §4, §5

[1] = Homo sapiens, SK-MEL-28, MEL-28
[2] = Homo sapiens, SK-MEL-28, MEL-28, total growth inhibition (cytostatic effect)
[3] = cell killing (cytotoxic effect)
[4] = total growth inhibition (cytostatic effect)
[5] = Homo sapiens, total growth inhibition (cytostatic effect)
[6] = Homo sapiens, DU-145, DU-145, total growth inhibition (cytostatic effect)
[7] = HELA-APL, cell killing (cytotoxic effect)
[8] = HELA-APL, total growth inhibition (cytostatic effect)
[9] = Homo sapiens, HT-29, HT-29, total growth inhibition (cytostatic effect)
[10] = Homo sapiens, LoVo, total growth inhibition (cytostatic effect)
[11] = Homo sapiens, PANC-1, PANC-1, total growth inhibition (cytostatic effect)
[12] = Homo sapiens, SK-BR-3, SK-BR-3, total growth inhibition (cytostatic effect)

COc1cc2ccn3c(c(-c4ccc(OC(=O)[C@H](C)N)c(OC)c4)c4c5cc(OC)c(OC(=O)[C@H](C)N)cc5oc(=O)c43)c2cc1OC [Compound 20]
GI50 (SK-MEL-28; [1]): 2.24 µM
CC50 (SK-MEL-28; [1]): 15.3 µM
IC (TGI) (SK-MEL-28; [2]): 15.3 µM
GI50 (HeLa): 1170 nM
CC50 (HeLa; [3]): 15.3 µM
IC (TGI) (HeLa; [4]): 15.3 µM
GI50 (LoVo-Dox; Homo sapiens): 525 nM
CC50 (LoVo-Dox; Homo sapiens): 15.3 µM
IC (TGI) (LoVo-Dox; [5]): 2.06 µM
GI50 (A-549; Homo sapiens, A549, A-549): 589 nM
CC50 (A-549; Homo sapiens, A549, A-549): 15.3 µM
IC (TGI) (A-549; Homo sapiens, A549, A-549): 15.3 µM
GI50 (DU-145; Homo sapiens, DU-145, DU-145): 500 nM
CC50 (DU-145; Homo sapiens, DU-145, DU-145): 15.3 µM
IC (TGI) (DU-145; [6]): 2.36 µM
GI50 (HeLa-APL; HELA-APL, GI=growth inhibition): 2090 nM
CC50 (HeLa-APL; [7]): 15.3 µM
IC (TGI) (HeLa-APL; [8]): 15.3 µM
GI50 (HT-29; Homo sapiens, HT-29, HT-29): 3.58 µM
CC50 (HT-29; Homo sapiens, HT-29, HT-29): 15.3 µM
IC (TGI) (HT-29; [9]): 15.3 µM
GI50 (LoVo; Homo sapiens, LoVo): 436 nM
CC50 (LoVo; Homo sapiens, LoVo): 15.3 µM
IC (TGI) (LoVo; [10]): 8.83 µM
GI50 (IGROV; Homo sapiens): 516 nM
CC50 (IGROV; Homo sapiens): 15.3 µM
IC (TGI) (IGROV; [5]): 7.46 µM
GI50 (PANC-1; Homo sapiens, PANC-1, PANC-1): 1240 nM
CC50 (PANC-1; Homo sapiens, PANC-1, PANC-1): 15.3 µM
IC (TGI) (PANC-1; [11]): 15.3 µM
GI50 (SK-BR-3; Homo sapiens, SK-BR-3, SK-BR-3): 54.8 nM
CC50 (SK-BR-3; Homo sapiens, SK-BR-3, SK-BR-3): 15.3 µM
IC (TGI) (SK-BR-3; [12]): 0.238 µM
GI50 (IGROV-ET; Homo sapiens): 593 nM
CC50 (IGROV-ET; Homo sapiens): 15.3 µM
IC (TGI) (IGROV-ET; [5]): 15.3 µM

COc1cc2ccn3c(c(-c4ccc(OC(=O)[C@@H](N)Cc5ccccc5)c(OC)c4)c4c5cc(OC)c(OC(=O)[C@@H](N)Cc6ccccc6)cc5oc(=O)c43)c2cc1OC [Compound 13]
GI50 (SK-MEL-28; MEL-28): 3.11 µM
CC50 (SK-MEL-28; MEL-28): 12.4 µM
TGI MEL-28 (SK-MEL-28; MEL-28, total growth inhibition (cytostatic effect)): 1.09E−05 Molar
CC50 (HeLa): 12.4 µM
IC (TGI) (HeLa): 9.63 µM
GI50 (HeLa): 1830 nM
GI50 (LoVo-Dox): 675 nM
CC50 (LoVo-Dox): 12.4 µM
TGI LOVO-DOX (LoVo-Dox; [4]): 3.42E−06 Molar
GI50 (A-549; A-549): 906 nM
CC50 (A-549; A-549): 12.4 µM
IC (TGI) (A-549; Homo sapiens, A549, A-549): 12.4 µM
CC50 (DU-145; DU-145): 12.4 µM
TGI DU-145 (DU-145; DU-145, total growth inhibition (cytostatic effect)): 3.64E−06 Molar
GI50 (DU-145; Homo sapiens, DU-145, DU-145): 832 nM
GI50 (HeLa-APL): 2600 nM
CC50 (HeLa-APL): 12.4 µM
IC (TGI) (HeLa-APL): 12.1 µM
GI50 (HT-29; HT-29): 3.22 µM
CC50 (HT-29; HT-29): 12.4 µM
TGI HT-29 (HT-29; HT-29, total growth inhibition (cytostatic effect)): 6.39E−06 Molar
GI50 (LoVo; LOVO): 754 nM
CC50 (LoVo; LOVO): 9.02 µM
TGI LOVO (LoVo; LOVO, total growth inhibition (cytostatic effect)): 2.35E−06 Molar
GI50 (IGROV; Homo sapiens): 1290 nM
CC50 (IGROV): 12.4 µM
TGI IGROV (IGROV; [4]): 4.79E−06 Molar
GI50 (PANC-1; PANC-1): 2430 nM
CC50 (PANC-1; PANC-1): 12.4 µM
TGI PANC-1 (PANC-1; PANC-1, total growth inhibition (cytostatic effect)): 1.24E−05 Molar
GI50 (SK-BR-3; SK-BR-3): 45.4 nM
CC50 (SK-BR-3; SK-BR-3): 10.2 µM
TGI SK-BR-3 (SK-BR-3; SK-BR-3, total growth inhibition (cytostatic effect)): 1.13E−07 Molar
GI50 (IGROV-ET; Homo sapiens): 1960 nM
CC50 (IGROV-ET): 12.4 µM
TGI IGROV-ET (IGROV-ET; [4]): 7.86E−06 Molar

COc1cc(-c2c3c4cc(OC)c(OC(C)C)cc4oc(=O)c3n3ccc4c(OC(C)C)c(OC)c(OC)cc4c23)ccc1OC(C)C [Compound 27]
GI50 (SK-MEL-28; [1]): 4.47 µM
CC50 (SK-MEL-28; [1]): 15.2 µM
IC (TGI) (SK-MEL-28; [2]): 9.35 µM
GI50 (HeLa): 4040 nM
CC50 (HeLa; [3]): 15.2 µM
IC (TGI) (HeLa; [4]): 9.47 µM
GI50 (LoVo-Dox; Homo sapiens): 15200 nM
CC50 (LoVo-Dox; Homo sapiens): 15.2 µM
IC (TGI) (LoVo-Dox; [5]): 15.2 µM
GI50 (A-549; Homo sapiens, A549, A-549): 5490 nM
CC50 (A-549; Homo sapiens, A549, A-549): 15.2 µM
IC (TGI) (A-549; Homo sapiens, A549, A-549): 15.2 µM
GI50 (DU-145; Homo sapiens, DU-145, DU-145): 976 nM
CC50 (DU-145; Homo sapiens, DU-145, DU-145): 12.6 µM
IC (TGI) (DU-145; [6]): 3.95 µM
GI50 (HeLa-APL; HELA-APL, GI=growth inhibition): 13000 nM
CC50 (HeLa-APL; [7]): 15.2 µM
IC (TGI) (HeLa-APL; [8]): 15.2 µM
GI50 (HT-29; Homo sapiens, HT-29, HT-29): 0.144 µM
CC50 (HT-29; Homo sapiens, HT-29, HT-29): 15.2 µM
IC (TGI) (HT-29; [9]): 2.17 µM
GI50 (LoVo; Homo sapiens, LoVo): 270 nM
CC50 (LoVo; Homo sapiens, LoVo): 15.2 µM
IC (TGI) (LoVo; [10]): 2.17 µM
GI50 (IGROV; Homo sapiens): 1150 nM
CC50 (IGROV; Homo sapiens): 15.2 µM
IC (TGI) (IGROV; [5]): 5.06 µM
GI50 (PANC-1; Homo sapiens, PANC-1, PANC-1): 4410 nM
CC50 (PANC-1; Homo sapiens, PANC-1, PANC-1): 15.2 µM
IC (TGI) (PANC-1; [11]): 13 µM
GI50 (SK-BR-3; Homo sapiens, SK-BR-3, SK-BR-3): 881 nM
CC50 (SK-BR-3; Homo sapiens, SK-BR-3, SK-BR-3): 14.1 µM
IC (TGI) (SK-BR-3; [12]): 3.25 µM
GI50 (IGROV-ET; Homo sapiens): 10400 nM
CC50 (IGROV-ET; Homo sapiens): 15.2 µM
IC (TGI) (IGROV-ET; [5]): 15.2 µM
